Measurements as given in the supplement of paper PMC10307832.

Key:
Experiment in all cases: relative viability (nuclei count vs DMSO), 5 days (fraction); higher = more cells survive
[1] = compound: CN(C)CC1=CC(=CC=C1)N=C(C2=CC=CC=C2)C3=C(NC4=C3C=CC(=C4)C(=O)N(C)C)O
Procedure, shortened: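 Following overnight incubation at 37 °C, lung cancer cell lines in 1536-well plates were pinned with five library-drug doses (not always all listed) in √10 steps on vehicle-anchored plates. The cells then spent 5 days without medium change before a combined fix, permeabilisation and Hoechst stain, 4× imaging and MetaXpress nuclear counts. Viability is the treated-to-vehicle ratio of nuclei, taken as the median across plates. Only plates with control CV below 25% and at least one doubling passed.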

[2] = compound: CN(C)CC1=CC(=CC=C1)N=C(C2=CC=CC=C2)C3=C(NC4=C3C=CC(=C4)C(=O)N(C)C)O + CC(=O)c1c(C)c2cnc(Nc3ccc(N4CCNCC4)cn3)nc2n(C2CCCC2)c1=O [Palbociclib] (partner 0.5 µM)
Procedure, shortened: (§1)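 Relative viability equals treated-well nuclei counts divided by vehicle-well nuclei counts. Counts came from 4× images of lung cancer cell lines grown in 1536-well plates for 5 days after pin-tool dosing on the day after seeding. Dosing used one drug alone or a fixed anchor-drug dose plus five library-drug doses (not always all listed) in √10 steps, and values are medians of duplicate plates.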

[3] = compound: CN(C)CC1=CC(=CC=C1)N=C(C2=CC=CC=C2)C3=C(NC4=C3C=CC(=C4)C(=O)N(C)C)O + COc1cc2c(Oc3ccc(NC(=O)C4(C(=O)Nc5ccc(F)cc5)CC4)cc3F)ccnc2cc1OCCCN1CCOCC1 [Foretinib] (partner 0.25 µM)
Procedure, shortened: as §1

[4] = compound: CN(C)CC1=CC(=CC=C1)N=C(C2=CC=CC=C2)C3=C(NC4=C3C=CC(=C4)C(=O)N(C)C)O + COc1cccc2cc(-c3nc([C@H]4CC[C@H](C(=O)O)CC4)n4ncnc(N)c34)[nH]c12 [OSI-027] (partner 0.5 µM)
Procedure, shortened: as §1

| Cell Line | relative viability ([1]; 0.08 µM) | relative viability ([1]; 0.253 µM) | relative viability ([1]; 0.8 µM) | relative viability ([1]; 2.53 µM) | relative viability ([1]; 8 µM) | relative viability ([2]; first compound 0.08 µM) | relative viability ([2]; first compound 0.253 µM) | relative viability ([2]; first compound 0.8 µM) | relative viability ([2]; first compound 2.53 µM) | relative viability ([2]; first compound 8 µM) | relative viability ([3]; first compound 0.08 µM) | relative viability ([3]; first compound 0.253 µM) | relative viability ([3]; first compound 0.8 µM) | relative viability ([3]; first compound 2.53 µM) | relative viability ([3]; first compound 8 µM) | relative viability ([4]; first compound 0.08 µM) | relative viability ([4]; first compound 0.253 µM) | relative viability ([4]; first compound 0.8 µM) | relative viability ([4]; first compound 2.53 µM) | relative viability ([4]; first compound 8 µM) |
| --- | --- | --- | --- | --- | --- | --- | --- | --- | --- | --- | --- | --- | --- | --- | --- | --- | --- | --- | --- | --- |
| NCI-H322M | 0.823 | 0.996 | 0.794 | 0.75 | 0.651 | 0.448 | 0.48 | 0.45 | 0.442 | 0.432 | 0.887 | 1.02 | 0.831 | 0.831 | 0.666 | 0.581 | 0.562 | 0.555 | 0.499 | 0.475 |
| NCI-H358 | 0.94 | 0.789 | 0.705 | 0.879 | 0.784 | 0.122 | 0.139 | 0.141 | 0.149 | 0.17 | 0.696 | 0.808 | 0.515 | 0.585 | 0.506 | 0.824 | 0.706 | 0.633 | 0.671 | 0.549 |
| NCI-H441 | 1.03 | 1.14 | 1.2 | 0.984 | 0.923 | 0.217 | 0.231 | 0.2 | 0.198 | 0.247 | 1.11 | 1.01 | 1.24 | 1.17 | 0.873 | 0.522 | 0.703 | 0.74 | 0.568 | 0.39 |
| NCI-H460 | 0.981 | 1.04 | 1.04 | 0.933 | 1.01 | 0.224 | 0.221 | 0.211 | 0.132 | 0.237 | 0.995 | 1.07 | 0.994 | 0.928 | 1.04 | 0.615 | 0.727 | 0.824 | 0.65 | 0.335 |
| NCI-H520 | 0.879 | 0.958 | 1.01 | 0.932 | 0.881 | 0.234 | 0.2 | 0.214 | 0.195 | 0.173 | 0.799 | 0.789 | 0.695 | 0.712 | 0.649 | 0.213 | 0.247 | 0.267 | 0.3 | 0.218 |
| NCI-H647 | 0.997 | 0.864 | 0.888 | 0.909 | 0.78 | 0.431 | 0.433 | 0.471 | 0.45 | 0.382 | 1.26 | 1.1 | 1.12 | 1.15 | 1 | 0.711 | 0.772 | 0.754 | 0.461 | 0.539 |
| NCI-H650 | 0.941 | 1.02 | 1.1 | 0.963 | 0.782 | 0.319 | 0.371 | 0.387 | 0.355 | 0.364 | 1.16 | 1.08 | 0.988 | 0.846 | 1.07 | 0.529 | 0.561 | 0.583 | 0.507 | 0.42 |
| NCI-H661 | 0.975 | 1.05 | 1.01 | 0.958 | 0.941 | 0.435 | 0.381 | 0.391 | 0.392 | 0.429 | 0.996 | 0.963 | 0.957 | 0.966 | 0.883 | 0.718 | 0.679 | 0.665 | 0.718 | 0.567 |
| NCI-H727 | 0.921 | 0.962 | 0.891 | 1.02 | 0.821 | – | 0.617 | 0.593 | 0.391 | 0.74 | 0.896 | 0.877 | 0.804 | 0.942 | 0.664 | 0.72 | 0.581 | 0.59 | 0.573 | 0.537 |
| NCI-H838 | 1 | 0.976 | 0.977 | 0.902 | 0.785 | 0.253 | 0.243 | 0.199 | 0.198 | 0.177 | 1.13 | 0.969 | 1 | 0.888 | 0.938 | 0.347 | 0.469 | 0.513 | 0.417 | 0.354 |
| NCI-H1355 | 1.03 | 0.992 | 0.836 | 0.993 | 0.979 | 0.425 | 0.399 | 0.305 | 0.4 | 0.4 | 0.684 | 1.05 | 0.922 | 0.919 | 1.02 | 0.463 | 0.457 | 0.393 | 0.491 | 0.329 |
| NCI-H1395 | 0.87 | 0.976 | 1.04 | 0.774 | 0.875 | 0.617 | 0.612 | 0.698 | 0.544 | 0.602 | 0.97 | 1.01 | 1.04 | 0.854 | 0.92 | 0.647 | 0.813 | 0.711 | 0.62 | 0.628 |
| NCI-H1437 | 1.05 | 0.977 | 1.04 | 1.02 | 1.05 | 0.339 | 0.365 | 0.317 | 0.331 | 0.368 | 1.3 | 1.22 | 1.35 | 1.27 | 1.33 | 1.02 | 0.917 | 0.983 | 0.877 | 0.942 |
| NCI-H1650 | 0.967 | 0.961 | 0.982 | 1.04 | 0.909 | 0.36 | 0.399 | 0.331 | 0.314 | 0.364 | 1.17 | 1.12 | 1.08 | 1.05 | 0.977 | 0.756 | 0.686 | 0.612 | 0.714 | 0.524 |
| NCI-H1651 | 1.01 | 0.954 | 1.04 | 0.897 | 0.978 | 0.526 | 0.505 | 0.554 | 0.521 | 0.494 | 0.865 | 0.777 | 0.87 | 0.735 | 0.816 | 0.846 | 0.874 | 0.731 | 0.645 | 0.783 |
